Reference: patent US20240067639A1, “SMALL MOLECULES THAT TARGET THE RNA THAT CAUSES ALS” (EXPANSION THERAPEUTICS, INC., priority 2020, published 2024)
Like-named read-outs stand apart in the source and are kept apart here.

How the values were obtained:
[1] = tested on: RAN translation of (G4C2)66-No ATG-GFP in HEK293T cells; experiment: Cell-based assay of RAN translation inhibition (GFP/mCherry reporter); settings: Homo sapiens, HEK-293T; for IC50: Table G, read-out: RANT IC50; for IC25: 24 h, read-out: RANT IC25
[2] = biological target: Biotin-labeled RNA (target RNA); experiment: BLI affinity measurement (ForteBio Octet RED384); type: binding; settings: Table G
[3] = biological target: biotinylated r(G4C2)8 RNA and hnRNP H1-His6; experiment: TR-FRET hnRNP H binding assay; settings: Table D
Method in brief: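 Biotinylated r(G4C2)8 RNA (80 nM), heat-folded at 95 °C then slowly cooled, was preincubated 15 min with compound before hnRNP H1-His6 (75 nM) was added. After 15 min, streptavidin-XL665 (40 nM) and anti-His6-Tb (0.44 ng/μL) were added and TR-FRET was read after 1 h. IC50 was obtained by curve fitting.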

[4] = Table D, HEK293T, 24 h treatment

SMILES	IC50 ([1]; HEK293T) [µM]	Kd [2] [µM]	IC25 [1, 4] [µM]	Ki [3] [µM]	IC25 [1] [µM]
c1cc2cc3[nH]c4ccc(OCC5=NCCN5)cc4c3cc2cn1 [Compound 262, 9-((4,5-dihydro-1H-imidazol-2-yl)methoxy)-6H-pyrido[4,3-b]carbazole]	6.6	5.2			
Cc1c2ccncc2cc2c1[nH]c1ccc(OCCN)cc12 [Compound 263, 2-[(5-methyl-6H-pyrido[4,3-b]carbazol-9-yl)oxy]ethanamine]	> 100	0.61			
Cc1c2ccncc2cc2c3cc(OCC(N)=O)cc(F)c3n(C)c12 [Compound 264, 2-(7-fluoro-5,6-dimethyl-pyrido[4,3-b]carbazol-9-yl)oxyacetamide]	> 100	0.18			
Cc1c2ccncc2cc2c3cc(OC[C@H]4CCCN4)cc(F)c3n(C)c12 [Compound 265, (R)-7-fluoro-5,6-dimethyl-9-(pyrrolidin-2-ylmethoxy)-6H-pyrido[4,3-b]carbazole]	> 100	0.72			
Cc1c2ccncc2cc2c3cc(OCCCN4CCCCC4)ccc3n(C)c12 [Compound 266, 5,6-dimethyl-9-(3-(piperidin-1-yl)propoxy)-6H-pyrido[4,3-b]carbazole]	7.8	0.69			
Cc1c2ccncc2cc2c3cc(OCC[C@@H](C)N)ccc3n(C)c12 [Compound 267, (R)-4-((5,6-dimethyl-6H-pyrido[4,3-b]carbazol-9-yl)oxy)butan-2-amine]	> 21	8			
Cc1c2ccncc2cc2c3cc(OCC[C@H](C)N)ccc3n(C)c12 [Compound 268, (S)-4-((5,6-dimethyl-6H-pyrido[4,3-b]carbazol-9-yl)oxy)butan-2-amine]	2.9	8.7			
Cc1c2ccncc2cc2c3cc(OC[C@H]4CCCN4C)ccc3n(C)c12 [Example 36, (R)-5,6-dimethyl-9-((1-methylpyrrolidin-2-yl)methoxy)-6H-pyrido[4,3-b]carbazole]			> 5	3.9	
Cc1c2ccncc2cc2c3cc(OC[C@@H]4CCCN4C)ccc3n(C)c12 [Example 37, (S)-5,6-dimethyl-9-((1-methylpyrrolidin-2-yl)methoxy)-6H-pyrido[4,3-b]carbazole]			2.3	0.84	
Cc1c2ccncc2cc2c3cc(OC[C@H]4CCCN4)ccc3n(C)c12 [Example 38, (R)-5,6-dimethyl-9-(pyrrolidin-2-ylmethoxy)-6H-pyrido[4,3-b]carbazole]			0.74	0.76	
Cc1c2ccncc2cc2c3cc(OC[C@@H]4CCCN4)ccc3n(C)c12 [Example 39, (S)-5,6-dimethyl-9-(pyrrolidin-2-ylmethoxy)-6H-pyrido[4,3-b]carbazole]			1.3	0.8	
Cc1c2ccncc2cc2c3cc(OCC4=NCCN4C)ccc3n(C)c12 [Example 41, 5,6-dimethyl-9-((1-methyl-4,5-dihydro-1H-imidazol-2-yl)methoxy)-6H-pyrido[4,3-b]carbazole]			0.67	0.6	
Cc1c2ccncc2cc2c3cc(OCC(=O)NCCN4CCOCC4)ccc3n(C)c12 [Example 42, 2-((5,6-dimethyl-6H-pyrido[4,3-b]carbazol-9-yl)oxy)-N-(2-morpholinoethyl)acetamide]			> 5	9.2	
COc1ccc2c(c1)c1cc3ccncc3c(C)c1n2C [Example 50, 7-methoxy-10,11-dimethyl-10H-pyrido[3,4-b]carbazole]			0.27	33	
Cc1c2ccncc2cc2c3ccc(OCCN(C)C)cc3n(C)c12 [Example 51, 2-((5,6-dimethyl-6H-pyrido[4,3-b]carbazol-8-yl)oxy)-N,N-dimethylethanamine]			> 5	6	
Cc1c2ccncc2cc2c3ccc(OCC4=NCCN4)cc3n(C)c12 [Example 52, 8-((4,5-dihydro-1H-imidazol-2-yl)methoxy)-5,6-dimethyl-6H-pyrido[4,3-b]carbazole]			3.1	5.6	
Cc1c2ccncc2cc2c3c(OCCN4CCOCC4)cccc3n(C)c12 [Example 54, 4-(2-((5,6-dimethyl-6H-pyrido[4,3-b]carbazol-10-yl)oxy)ethyl)morpholine]			1.3	13	
Cc1c2ccncc2cc2c3c(OCCN(C)C)cccc3n(C)c12 [Example 55, 2-((5,6-dimethyl-6H-pyrido[4,3-b]carbazol-10-yl)oxy)-N,N-dimethylethanamine]				1.5	0.92
Cc1c2ccncc2cc2c3c(OCC4=NCCN4)cccc3n(C)c12 [Example 56, 10-((4,5-dihydro-1H-imidazol-2-yl)methoxy)-5,6-dimethyl-6H-pyrido[4,3-b]carbazole]			0.67	1	
Cc1c2ccncc2cc2c3cc(OCC(=O)N(C)C)ccc3n(C)c12 [Example 57, 2-((5,6-dimethyl-6H-pyrido[4,3-b]carbazol-9-yl)oxy)-N,N-dimethylacetamide]			4	5.2	

SMILES	IC50 ([1]; HEK293T) [µM]	Kd [2] [µM]	IC25 [1, 4] [µM]	Ki [3] [µM]	IC25 [1] [µM]
Cc1c2ccncc2cc2c3cc(OCC(=O)N4CCN(C)CC4)ccc3n(C)c12 [Example 60, 2-((5,6-dimethyl-6H-pyrido[4,3-b]carbazol-9-yl)oxy)-1-(4-methylpiperazin-1-yl)ethanone]			> 5	3.8	
Cc1c2ccncc2cc2c3cc(OC[C@@H](C)N)ccc3n(C)c12 [Example 61, (R)-1-((5,6-dimethyl-6H-pyrido[4,3-b]carbazol-9-yl)oxy)propan-2-amine]			1	0.9	
CCn1c2ccc(OCCN3CCOCC3)cc2c2cc3cnccc3c(C)c21 [Example 62, 4-[2-(6-ethyl-5-methyl-pyrido[4,3-b]carbazol-9-yl)oxyethyl]morpholine]			> 5	> 200	
CCn1c2ccc(OCC3=NCCN3)cc2c2cc3cnccc3c(C)c21 [Example 63, 9-((4,5-dihydro-1H-imidazol-2-yl)methoxy)-6-ethyl-5-methyl-6H-pyrido[4,3-b]carbazole]			4.8	1.8	
Cc1c2ccncc2cc2c3cccc(OCCN4CCOCC4)c3n(C)c12 [Example 64, 4-(2-((5,6-dimethyl-6H-pyrido[4,3-b]carbazol-7-yl)oxy)ethyl) morpholine]			> 5	> 200	
Cc1c2ccncc2cc2c3cc(C(=O)NCCN(C)C)ccc3n(C)c12 [Example 68, N-(2-(dimethylamino)ethyl)-5,6-dimethyl-6H-pyrido[4,3-b]carbazole-9-carboxamide]			0.72	4	
Cc1c2ccncc2cc2c3cc(C(N)=O)ccc3n(C)c12 [Example 69, 5,6-dimethyl-6H-pyrido[4,3-b]carbazole-9-carboxamide]			1.6	12	
CNC(=O)c1ccc2c(c1)c1cc3cnccc3c(C)c1n2C [Example 70, N,5,6-trimethyl-6H-pyrido[4,3-b]carbazole-9-carboxamide]			3.6	36	
Cc1c2ccncc2cc2c3cc(C(=O)N(C)C)ccc3n(C)c12 [Example 71, N,N,5,6-tetramethyl-6H-pyrido[4,3-b]carbazole-9-carboxamide]			> 5	107	
CNCCNC(=O)c1ccc2c(c1)c1cc3cnccc3c(C)c1n2C [Example 73, 5,6-dimethyl-N-(2-(methylamino)ethyl)-6H-pyrido[4,3-b]carbazole-9-carboxamide]			0.84	13	
Cc1c2ccncc2cc2c3cc(C(=O)NCCC4CCN(C)CC4)ccc3n(C)c12 [Example 75, 5,6-dimethyl-N-(2-(1-methylpiperidin-4-yl)ethyl)-6H-pyrido[4,3-b]carbazole-9-carboxamide]			1.4	29	
Cc1c2ccncc2cc2c3cc(C(=O)N4CCN(C)CC4)ccc3n(C)c12 [Example 76, (5,6-dimethyl-6H-pyrido[4,3-b]carbazol-9-yl)(4-methylpiperazin-1-yl)methanone]			2.2	4.2	
Cc1c2ccncc2cc2c3cc(C(=O)NCCN4CCCCC4)ccc3n(C)c12 [Example 77, 5,6-dimethyl-N-(2-(piperidin-1-yl)ethyl)-6H-pyrido[4,3-b]carbazole-9-carboxamide]			1.7	1.2	
Cc1c2ccncc2cc2c3cc(C(=O)NCCO)ccc3n(C)c12 [Example 78, N-(2-hydroxyethyl)-5,6-dimethyl-6H-pyrido[4,3-b]carbazole-9-carboxamide]			1.6	3.6	
CCc1nccc2c(C)c3c(cc12)c1cc(OC)ccc1n3C [Example 80a, 1-ethyl-9-methoxy-5,6-dimethyl-6H-pyrido[4,3-b]carbazole]			> 5	30	
COc1ccc2c(c1)c1cc3c(C4CCCO4)nccc3c(C)c1n2C (stereo not drawn) [Example 80b, 9-methoxy-5,6-dimethyl-1-(tetrahydrofuran-2-yl)-6H-pyrido[4,3-b]carbazole]			3.1	9.2	
COc1ccc2c3cc4c(C(=O)N[C@H](C)CN(C)C)nccc4c(C)c3n(C)c2c1 [Example 82, (R)—N-(1-(dimethylamino)propan-2-yl)-8-methoxy-5,6-dimethyl-6H-pyrido[4,3-b]carbazole-1-carboxamide]			> 5	20	
Cc1c2cnccc2cc2c3cc(OCC4=NCCN4)ccc3n(C)c12 [Example 83, 7-(4,5-dihydro-1H-imidazol-2-ylmethoxy)-10,11-dimethyl-pyrido[3,4-b]carbazole]			1.1	2.3	
Cc1c2ccncc2cc2c3cc(OCC4=NCCN4)ccc3n(C(C)C)c12 [Example 84, 9-(4,5-dihydro-1H-imidazol-2-ylmethoxy)-6-isopropyl-5-methyl-pyrido[4,3-b]carbazole]			> 5	13	
